{
  "source": "patent US10703740B2",
  "about": "“Substituted benzimidazoles, their preparation and their use as pharmaceuticals” (NEOMED Institute, priority 2015, dated 2020)",
  "data": [
    {"system": "human C-Myc transcription in MV-4-11 cells", "test": "Transcription of human C-Myc in human leukemic MV-4-11 cells (QuantiGene 2.0)", "type": "cell-based", "settings": "Homo sapiens, MV4-11, 4 h, inhibition of C-Myc mRNA, 4 hours treatment, read-out: IC50 MV-4-11 Cell", "method": "(§1) The effect of compounds on transcription of human C-Myc gene is monitored in human B-myelomonocytic leukemia cell line MV-4-11 (from American Type Culture Collection (ATCC), Manassas, Va., USA) using QuantiGene 2.0 assay kit (Affymetrix, Santa Clara, Calif., USA).\n(§2) Typically, 8,000 MV-4-11 cells are plated in sterile 96-well plates (Costar #3598 from Fisher Scientific Canada, Ottawa, Ontario, Canada) in Iscove's medium supplemented with 10% fetal bovine serum, glutamine (2 mM), and penicillin (100 I.U.) and streptomycin (100 μg/mL) (all from Wisent Inc., St. Bruno, Quebec, Canada). Compounds are dissolved in DMSO at 30 mM. A series of 1:3 dilutions are first made in DMSO, and further 1:100 dilutions are made in serum-containing cell culture media. The final concentration of DMSO is 0.1% in cell culture media. After cells are treated with various concentrations of test compound for 4 hours, cells are lysed using Quantigene 2.0 sample processing kit (# QS0100). C-Myc mRNA is detected using a QuantiGene 2.0 assay kit (# QS0009) with gene-specific probe to human C-Myc (# SA-50182) following the manufacturer's recommendations. Luminescene signals are read on Flexstation II microplate reader (Molecular Devices, Sunnyvale, Calif., USA).", "units": {"IC50": "µM"}, "values": [
      {"smiles": "CCOC[C@@H](C)n1c(C2CC(F)(F)C2)nc2ccc(-c3cc(C)c(=O)n(C)c3)cc21", "note": "[Compound 52, (R)-5-(2-(3,3-difluorocyclobutyl)-1-(1-ethoxypropan-2-yl)-1H-benzo[d]imidazol-6-yl)-1,3-dimethylpyridin-2(1H)-one]", "IC50": 0.051},
      {"smiles": "Cc1cc(-c2ccc3nc([C@H]4CCCO4)n(CCOC(F)(F)F)c3c2)cn(C)c1=O", "note": "(stereo in doubt) [Compound 30a, 1,3-dimethyl-5-[2-tetrahydrofuran-2-yl-3-[2-(trifluoromethoxy)ethyl]benzimidazol-5-yl]pyridin-2-one]", "IC50": 0.2},
      {"smiles": "CCOCCn1c(C2CCC(F)(F)CC2)nc2ccc(-c3cc(C)c(=O)n(C)c3)cc21", "note": "[Compound 61, 5-(2-(4,4-difluorocyclohexyl)-1-(2-ethoxyethyl)-1H-benzo[d]imidazol-6-yl)-1,3-dimethylpyridin-2(1H)-one]", "IC50": 0.084},
      {"smiles": "CO[C@H]1C[C@@H](c2nc3ccc(-c4cc(C)c(=O)n(C)c4)cc3n2CCOC(F)(F)F)C1", "note": "[Compound 28b]", "IC50": 0.05},
      {"smiles": "COC(C)Cn1c(C)nc2ccc(-c3cc(C)c(=O)n(C)c3)cc21", "note": "(centres unmarked) [Compound 21a, 5-[3-(2-methoxypropyl)-2-methylbenzimidazol-5-yl]-1,3-dimethylpyridin-2-one]", "IC50": 0.51},
      {"smiles": "Cc1cc(-c2ccc3nc(C4CCOCC4)n(C[C@H](C)OC(C)C)c3c2)cn(C)c1=O", "note": "[Compound 67, (S)-5-(1-(2-isopropoxypropyl)-2-(tetrahydro-2H-pyran-4-yl)-1H-benzo[d]imidazol-6-yl)-1,3-dimethylpyridin-2(1H)-one]", "IC50": 0.026},
      {"smiles": "CO[C@H](C)Cn1c(C2CCC(F)(F)CC2)nc2ccc(-c3cc(C)c(=O)n(C)c3)cc21", "note": "[Compound 58, (R)-5-(2-(4,4-difluorocyclohexyl)-1-(2-methoxypropyl)-1H-benzo[d]imidazol-6-yl)-1,3-dimethylpyridin-2(1H)-one]", "IC50": 0.16},
      {"smiles": "CO[C@@H](C)Cn1c(C2CCC(F)(F)CC2)nc2ccc(-c3cc(C)c(=O)n(C)c3)cc21", "note": "[Compound 59, (S)-5-(2-(4,4-difluorocyclohexyl)-1-(2-methoxypropyl)-1H-benzo[d]imidazol-6-yl)-1,3-dimethylpyridin-2(1H)-one]", "IC50": 0.09},
      {"smiles": "CCOCCn1c(C2CCOCC2)nc2ccc(-c3cc(C)c(=O)n(C)c3)cc21", "note": "[Compound 60, 5-(1-(2-ethoxyethyl)-2-(tetrahydro-2H-pyran-4-yl)-1H-benzo[d]imidazol-6-yl)-1,3-dimethylpyridin-2(1H)-one]", "IC50": 0.017},
      {"smiles": "CCO[C@@H](C)Cn1c(C2CCOCC2)nc2ccc(-c3cc(C)c(=O)n(C)c3)cc21", "note": "[Compound 40, (S)-5-(1-(2-ethoxypropyl)-2-(tetrahydro-2H-pyran-4-yl)-1H-benzo[d]imidazol-6-yl)-1,3-dimethylpyridin-2(1H)-one]", "IC50": 0.027},
      {"smiles": "CCOC[C@H](C)n1c(C2CCOCC2)nc2ccc(-c3cc(C)c(=O)n(C)c3)cc21", "note": "[Compound 48, (S)-5-(1-(1-ethoxypropan-2-yl)-2-(tetrahydro-2H-pyran-4-yl)-1H-benzo[d]imidazol-6-yl)-1,3-dimethylpyridin-2(1H)-one]", "IC50": 0.26}
    ]},
    {"system": "human C-Myc transcription in MV-4-11 cells", "test": "Transcription of human C-Myc in human leukemic MV-4-11 cells (QuantiGene 2.0)", "type": "cell-based", "settings": "inhibition of C-Myc mRNA, 4 hours treatment, read-out: IC50 MV-4-11 Cell", "method": "as §1, §2", "units": {"IC50": "µM"}, "values": [
      {"smiles": "COC(C)Cn1c(C2CC2)nc2ccc(-c3cc(C)c(=O)n(C)c3)cc21", "note": "(single isomer, unassigned) [Compound 23b, 5-[2-cyclopropyl-3-(2-methoxypropyl)benzimidazol-5-yl]-1,3-dimethylpyridin-2-one]", "IC50": 0.73},
      {"smiles": "COC(C)Cn1c(C)nc2ccc(-c3cc(C)c(=O)n(C)c3)cc21", "note": "(centres unmarked) [Compound 21b, 5-[3-(2-methoxypropyl)-2-methylbenzimidazol-5-yl]-1,3-dimethylpyridin-2-one]", "IC50": 0.59},
      {"smiles": "Cc1cc(-c2ccc3nc(C4CCOCC4)n(CC(C)C(F)(F)F)c3c2)cn(C)c1=O", "note": "(centres unmarked) [Compound 46b, 1,3-dimethyl-5-(2-(tetrahydro-2H-pyran-4-yl)-1-(3,3,3-trifluoro-2-methylpropyl)-1H-benzo[d]imidazol-6-yl)pyridin-2(1H)-one]", "IC50": 0.25}
    ]}
  ]
}
